Reference: US12357695B2, “Peptides and nanoparticles for intracellular delivery of molecules” (AADIGEN, LLC, priority 2019, dated 2025)
“Also recorded” adds a separate entry of the source. Square brackets hold non-standard residues; d marks the D form. Primed or numbered codes have the meaning given here. PEG7′ = (PEG)7 moiety; Ava = NCCCCC(=O)O; βAla = NCCC(=O)O

What was measured:
293T cells = experiment: Cellular delivery of pGL4 plasmid DNA expressing Luciferase, luciferase expression at 72 hrs; type: cell-based; details: for reduction of efficiency / luciferase expression in the presence of serum: complexes incubated 3 hrs in 25% serum prior transfection; for reduction of efficiency / luciferase expression in the presence of serum / reduction of efficiency / luciferase expression in heparan sulfate: pGL4 plasmid; for reduction of efficiency / luciferase expression in heparan sulfate: complexes incubated 3 hrs with heparan sulfate prior transfection
Method: FIGS. 2A-2C show luciferase expression in 293T cells treated with ADGN-peptide/pGL4 plasmid DNA complexes. 293T cells cultured in 48 well plates were transfected with ADGN-peptide nanoparticles. ADGN-100, ADGN-106, ADGN-100RI, ADGN-106RI, ADGN-100 Stearyl, ADGN-Hydro1, ADGN-Hydro2, ADGN-Hydro3, ADGN-Hydro4, ADGN-Hydro5, and ADGN-Hydro6 containing 0.17 μg pGL4 plasmid DNA were formed in sterile water, diluted in sterile water containing 5% Sucrose. ADGN-peptide nanoparticles were evaluated prior (FIG. 2A) and after filtration with 0.45 μm PES filters (FIG. 2B). FIG. 2C impact of peGylated ADGN-100 on the transfection efficiency. pGL4 luc plasmid (0.15 μg) were associated to ADGN-100 solution containing 5 to 50% of ADGN-100-PEG or to ADGN-100PEG. ADGN/pGL4 plasmid DNA complexes were incubated for 3 hrs in the presence of either 25% serum or heparan sulfate prior transfection. Luciferase expression was monitored 72 hours post transfection and results were reported as RLU (luminescence):mg of protein.
Complex formation with plasmid DNA. The following protocols were used for the transfection of 2-5 106 Cells or Cells at confluency of about 70-80% cultured in 24 well plates. ADGN peptide/plasmid DNA pGL4 particles were prepared at a 20:1 molar ratio of ADGN-Peptide/pGL4. using (0.2 μg). PGL4 plasmid (0.15 μg) was diluted in 20 μl of sterile water (GIBCO) at room temperature. 10 μl Final Peptide Solution was added to obtain a total volume of 20 μl. The volume was adjusted to 50 μl with sterile water and was mixed gently with vortex 1 min low speed and incubated 30 min at room temperature. Then the volume was made up to 100 μl by adding sterile water containing 5% sucrose, and the solution was mixed gently with vortex 1 min low speed and incubate 5 min at 37° C. and then was proceeded to cell transfection.
(§1) Transfection protocol. Protocol is reported for 24 well plate format. Cells were cultured in Dulbecco's Modified Eagle's Medium (DMEM), supplemented with 2 mM glutamine, 1% antibiotics (streptomycin 10,000 μg/mL, penicillin, 10,000 IU/mL) and 10% (w/v) foetal calf serum (FCS), at 37° C. in a humidified atmosphere containing 5% CO2. 24 well plates seeded with 150,000 cells the day prior to transfection were grown to 50-60% confluence and set up to be at about 70% confluences at the time of transfection. Before transfection, cells were washed twice with DMEM. Cells were then overlaid with 0.1 ml of ADGN-peptide/cargo complex solution containing 0.25 μg mRNA, 0.15 μg plasmid DNA or 10-25 nM siRNA, mixed gently, and incubated for 10 min at 37° C. 0.2 mL of fresh DMEM, were added and cells were incubated for 20 min at 37° C. 1 mL of complete DMEM containing 15% FCS were then added in order to reach a final FCS concentration of 10%, without removing the overlay of ADGN-peptide/cargo complexes. Cells were returned to the incubator (37° C., 5% CO2) and 72 hrs post transfection.
ADGN-peptides were evaluated for cellular delivery of pGL4 plasmid DNA expressing Luciferase in 293T cells. Luc pGL4 plasmid (0.15 μg) in sterile water (GIBCO) were mixed with ADGN-100, ADGN-100RI, ADGN-106, ADGN-106RI, ADGN-100 Stearyl, ADGN-100Hydro1, ADGN-100Hydro2, ADGN-100Hydro4, ADGN-100Hydro3, ADGN-100Hydro5 and ADGN-100Hydro6. ADGN-peptide/mRNA complexes were filtered with 0.45 μm PES filter. In order to evaluate the stability of the ADGN/pGL4 plasmid complexes in high serum and cell culture conditions, the complexes were incubated for 3 hrs in the presence of either 25% serum or heparan sulfate prior transfection, then 293T cells were transfected and Luciferase expression was monitored at 72 hrs.

A375/Luc cells = experiment: Cellular delivery of siRNA targeting Luciferase, luciferase silencing at 48 hrs; type: cell-based; details: 50% or 100% ADGN-100 PEG
Method: FIGS. 3A-3C show luciferase expression in A375/Luc cells treated with ADGN-peptide/siRNA complexes. A375/Luc cells cultured in 48 well plates were transfected with ADGN-peptide nanoparticles. ADGN-100, ADGN-106, ADGN-100RI, ADGN-106RI, ADGN-100 Stearyl, ADGN-Hydro1, ADGN-Hydro2, ADGN-Hydro3, ADGN-Hydro4, ADGN-Hydro5, ADGN-Hydro6 and ADGN-peptide/ADGN-100PEG 10% nanoparticles containing 10 nM or 25 nM siRNA were formed in sterile water, diluted in sterile water containing 5% Sucrose and filtered with 0.45 μm PES filters. FIG. 3C impact of peGylated ADGN-100 on the transfection efficiency. siRNA Luc (10 nM and 25 nM) were associated to ADGN-100 solution containing 5 to 50% of ADGN-100-PEG or to ADGN-100PEG. ADGN/siRNA complexes were incubated for 3 hrs in the presence of 25% serum prior transfection. Luciferase expression was monitored 48 hours post transfection and results were reported as RLU (luminescence):mg of protein.
Complex formation with siRNA. The following protocols were used for the transfection of 2-5 106 Cells or Cells at confluency of about 70-80% cultured in 24 well plates. ADGN peptide/siRNA Luc particles were prepared at a 20:1 molar ratio of ADGN-Peptide/pGL4. using 20 nM siRNA. The siRNA duplex (10 and 25 nM) was diluted in 20 μl of sterile water (GIBCO) at room temperature. 1.5 or 3 μl of a Final Peptide Solution (55 μM) was added to obtain a total volume of 20 μl. The volume was adjusted to 50 μl with sterile water and was mixed gently with vortex 1 min low speed and incubated 30 min at room temperature. Then the volume was made up to 100 μl by adding sterile water containing 5% sucrose, and the solution was mixed gently with vortex 1 min low speed and incubate 5 min at 37° C. and then was proceeded to cell transfection.
as §1
ADGN-peptides were evaluated for cellular delivery of siRNA duplex targeting Luciferase in A375/Luc cells. siRNA targeting luciferase (10 and 25 nM) in sterile water (GIBCO) were mixed with ADGN-100, ADGN-100RI, ADGN-106, ADGN-106RI, ADGN-100 Stearyl, ADGN-100Hydro1, ADGN-100Hydro2, ADGN-100Hydro4, ADGN-100Hydro3, ADGN-100Hydro5 and ADGN-100Hydro6. ADGN-peptide/siRNA complexes were filtered with 0.45 μm PES filter. In order to evaluate the stability of the ADGN/siRNA complexes in high serum conditions, the complexes were incubated for 3 hrs in the presence of 25% serum, then A375/Luc cells were transfected and Luciferase expression was monitored at 48 hrs.

mice or rat models = experiment: Summary of cargo delivery to targeted organ (Table 1); type: in vivo; details: cargoes and route (IV, IM, SQ, NB) per peptide as listed in Table 1
From the text: Table 1 lists a summary of cell-penetrating peptides that have been proven successful in delivering various cargo molecules to on or more targeted organ (e.g., by intravenous (IV), intramuscular (IM), or subcutaneous (SQ) administration, or intratraccheal instillation or nebulization (NB)) in mice or rat models.

## Ac-(PEG)7-βA-KWRSALWRWRLWRVRSWSR-NH2 ({Ac-PEG7′}-[βAla]KWRSALWRWRLWRVRSWSR-NH2) [ADGN-100-PEG7]
293T cells; 50% or 100% ADGN-100 PEG, pGL4 plasmid 0.15 μg
  reduction of level of Luciferase expression: 80%
A375/Luc cells
  reduction of transfection efficiency: 80%

## Ac-GYVS-Ava-KWRSALWRWRLWRVRSWSR-NH2 (Ac-GYVS[Ava]KWRSALWRWRLWRVRSWSR-NH2; SMILES CC(=O)NCC(=O)N[C@@H](Cc1ccc(O)cc1)C(=O)N[C@H](C(=O)N[C@@H](CO)C(=O)NCCCCC(=O)N[C@@H](CCCCN)C(=O)N[C@@H](Cc1c[nH]c2ccccc12)C(=O)N[C@@H](CCCNC(=N)N)C(=O)N[C@@H](CO)C(=O)N[C@@H](C)C(=O)N[C@@H](CC(C)C)C(=O)N[C@@H](Cc1c[nH]c2ccccc12)C(=O)N[C@@H](CCCNC(=N)N)C(=O)N[C@@H](Cc1c[nH]c2ccccc12)C(=O)N[C@@H](CCCNC(=N)N)C(=O)N[C@@H](CC(C)C)C(=O)N[C@@H](Cc1c[nH]c2ccccc12)C(=O)N[C@@H](CCCNC(=N)N)C(=O)N[C@H](C(=O)N[C@@H](CCCNC(=N)N)C(=O)N[C@@H](CO)C(=O)N[C@@H](Cc1c[nH]c2ccccc12)C(=O)N[C@@H](CO)C(=O)N[C@@H](CCCNC(=N)N)C(N)=O)C(C)C)C(C)C) [ADGN-100 hydro-4]
293T cells
  reduction of efficiency / luciferase expression in the presence of serum: do not significantly improved transfection
  reduction of efficiency / luciferase expression in heparan sulfate: do not significantly improved transfection
Mice or rat models
  Targeted Organ: Liver/Lung/; also recorded: Kidney/Spleen

## Ac-YIGSR-Ava-KWRSALWRWRLWRVRSWSR-NH2 (Ac-YIGSR[Ava]KWRSALWRWRLWRVRSWSR-NH2; SMILES CC[C@H](C)[C@H](NC(=O)[C@H](Cc1ccc(O)cc1)NC(C)=O)C(=O)NCC(=O)N[C@@H](CO)C(=O)N[C@@H](CCCNC(=N)N)C(=O)NCCCCC(=O)N[C@@H](CCCCN)C(=O)N[C@@H](Cc1c[nH]c2ccccc12)C(=O)N[C@@H](CCCNC(=N)N)C(=O)N[C@@H](CO)C(=O)N[C@@H](C)C(=O)N[C@@H](CC(C)C)C(=O)N[C@@H](Cc1c[nH]c2ccccc12)C(=O)N[C@@H](CCCNC(=N)N)C(=O)N[C@@H](Cc1c[nH]c2ccccc12)C(=O)N[C@@H](CCCNC(=N)N)C(=O)N[C@@H](CC(C)C)C(=O)N[C@@H](Cc1c[nH]c2ccccc12)C(=O)N[C@@H](CCCNC(=N)N)C(=O)N[C@H](C(=O)N[C@@H](CCCNC(=N)N)C(=O)N[C@@H](CO)C(=O)N[C@@H](Cc1c[nH]c2ccccc12)C(=O)N[C@@H](CO)C(=O)N[C@@H](CCCNC(=N)N)C(N)=O)C(C)C) [ADGN-100-Hydro-3]
293T cells
  reduction of efficiency / luciferase expression in the presence of serum: do not significantly improved transfection
  reduction of efficiency / luciferase expression in heparan sulfate: do not significantly improved transfection
Mice or rat models
  Targeted Organ: Tumor/Lung
